Experimental data: ChEMBL document CHEMBL1201862, “PubChem BioAssay data set” (2004)
“And” between values parts separate entries of the source, which are not always exact repeats. Equal values may be shown once.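 Cells were grown in 96-well plates and exposed to each compound for 48 hours at five concentrations; endpoints were interpolated linearly between bracketing concentrations, or set to the highest concentration if not reached. GI50 marks 50% less growth.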 The source made the active and inactive calls. No stated cut-off is given here; in the data, active = GI50 up to about 1.1 µM and inactive = higher.

Tests used:
Assay in all cases: NCI anticancer screen, dose series, 48 h
[1] = tested on: A498
[2] = tested on: OVCAR-8
[3] = tested on: HOP-62
[4] = tested on: SK-MEL-5
[5] = tested on: ACHN
[6] = tested on: NCI-H522
[7] = tested on: NCI-H460
[8] = tested on: Malme-3M
[9] = tested on: HT-29
[10] = tested on: LOX IMVI
[11] = tested on: MDA-MB-435
[12] = tested on: NCI-H23
[13] = tested on: SF-539
[14] = tested on: SNB-19
[15] = tested on: OVCAR-4
[16] = tested on: HCT-116
[17] = tested on: SK-MEL-2
[18] = tested on: T47D
[19] = tested on: COLO 205
[20] = tested on: M14
[21] = tested on: MOLT-4
[22] = tested on: 786-0
[23] = tested on: UO-31
[24] = tested on: RPMI-8226
[25] = tested on: DU-145
[26] = tested on: CCRF-CEM
[27] = tested on: A549
[28] = tested on: SW-620
[29] = tested on: RXF 393
[30] = tested on: HL-60
[31] = tested on: U-251
[32] = tested on: SF-295
[33] = tested on: SR
[34] = tested on: SNB-75
[35] = tested on: OVCAR-5
[36] = tested on: UACC-62
[37] = tested on: HCC 2998
[38] = tested on: EKVX
[39] = tested on: IGROV-1
[40] = tested on: Hs-578T
[41] = tested on: SK-MEL-28
[42] = tested on: HOP-92
[43] = tested on: HCT-15
[44] = tested on: BT-549
[45] = tested on: UACC-257
[46] = tested on: PC-3
[47] = tested on: OVCAR-3
[48] = tested on: KM12
[49] = tested on: SF-268
[50] = tested on: MCF7
[51] = tested on: NCI/ADR-RES
[52] = tested on: TK-10
[53] = tested on: NCI-H226
[54] = tested on: SK-OV-3
[55] = tested on: MDA-MB-231
[56] = tested on: K562
[57] = tested on: SN12C
[58] = tested on: MDA-N
[59] = tested on: CAKI-1

## COC(=O)c1cc2c3c(ccc2[nH]1)N(C(=O)c1cc2cc(OC)c(OC)c(OC)c2[nH]1)CC3CCl (stereo unspecified)
[1]
  GI50: 42.5 µM (inactive)
[2]
  GI50: 12.6 µM (inactive)
[3]
  GI50: > 21.8 µM (inactive)
[4]
  GI50: 2.23 µM (inactive)
[5]
  GI50: 5.62 µM (inactive)
[6]
  GI50: 2.9 µM (inactive)
[7]
  GI50: 2.79 µM (inactive)
[8]
  GI50: 8.59 µM (inactive)
[9]
  GI50: 8.55 µM (inactive)
[10]
  GI50: 4.98 µM (inactive)
[11]
  GI50: 13.7 µM (inactive)
[12]
  GI50: 5.56 µM (inactive)
[13]
  GI50: > 34.8 µM (inactive)
[14]
  GI50: > 100 µM (inactive)
[15]
  GI50: 8.34 µM (inactive)
[16]
  GI50: 4.46 µM (inactive)
[17]
  GI50: > 100 µM (inactive)
[18]
  GI50: > 100 µM (inactive)
[19]
  GI50: 2.66 µM (inactive)
[20]
  GI50: > 27.5 µM (inactive)
[21]
  GI50: 1.57 µM (inactive)
[22]
  GI50: 3.79 µM (inactive)
[23]
  GI50: 7.59 µM (inactive)
[24]
  GI50: 1.69 µM (inactive)
[25]
  GI50: 6.44 µM (inactive)
[26]
  GI50: 5.98 µM (inactive)
[27]
  GI50: 5.37 µM (inactive)
[28]
  GI50: 5.48 µM (inactive)
[29]
  GI50: 5.51 µM (inactive)
[30]
  GI50: 1.48 µM (inactive)
[31]
  GI50: 6.58 µM (inactive)
[32]
  GI50: 7.78 µM (inactive)
[33]
  GI50: 1.1 µM (active)
[34]
  GI50: > 100 µM (inactive)
[35]
  GI50: > 100 µM (inactive)
[36]
  GI50: 4.54 µM (inactive)
[37]
  GI50: > 100 µM (inactive)
[38]
  GI50: > 100 µM (inactive)
[39]
  GI50: 7.87 µM (inactive)
[40]
  GI50: 8.45 µM (inactive)
[41]
  GI50: > 24.1 µM (inactive)
[42]
  GI50: > 100 µM (inactive)
[43]
  GI50: 5.71 µM
[44]
  GI50: 3.51 µM (inactive)
[45]
  GI50: 81.5 µM (inactive)
[46]
  GI50: 4.31 µM (inactive)
[47]
  GI50: > 24.4 µM (inactive)
[48]
  GI50: 6.4 µM (inactive)
[49]
  GI50: > 100 µM (inactive)
[50]
  GI50: 3.94 µM (inactive)
[51]
  GI50: 12.2 µM (inactive)
[52]
  GI50: > 54.2 µM (inactive)
[53]
  GI50: 14.3 µM (inactive)
[54]
  GI50: > 100 µM (inactive)
[55]
  GI50: > 100 µM (inactive)

## Cc1cc(C)c(/C=C(\C(=C/c2c(C)cc(C)cc2C)[N+](=O)[O-])[N+](=O)[O-])c(C)c1
[56]
  GI50: > 100 µM (inactive)
[3]
  GI50: > 100 µM (inactive)
[4]
  GI50: 86.5 µM (inactive)
[5]
  GI50: > 100 µM (inactive)
[7]
  GI50: 46.7 µM (inactive)
[9]
  GI50: > 100 µM (inactive)
[10]
  GI50: 43.4 µM (inactive)
[11]
  GI50: > 100 µM (inactive)
[12]
  GI50: > 100 µM (inactive)
[13]
  GI50: > 100 µM (inactive)
[14]
  GI50: > 100 µM (inactive)
[15]
  GI50: > 100 µM (inactive)
[16]
  GI50: > 100 µM (inactive)
[57]
  GI50: > 100 µM (inactive)
[17]
  GI50: > 100 µM (inactive)
[18]
  GI50: 78.9 µM (inactive)
[19]
  GI50: > 100 µM (inactive)
[20]
  GI50: > 100 µM (inactive)
[21]
  GI50: 32.7 µM (inactive)
[23]
  GI50: > 100 µM (inactive)
[24]
  GI50: 1.31 µM (inactive)
[25]
  GI50: > 100 µM (inactive)
[26]
  GI50: 41.6 µM (inactive)
[27]
  GI50: > 100 µM (inactive)
[28]
  GI50: > 100 µM (inactive)
[29]
  GI50: 20.6 µM (inactive)
[31]
  GI50: > 100 µM (inactive)
[32]
  GI50: > 100 µM (inactive)
[33]
  GI50: 30.4 µM (inactive)
[34]
  GI50: > 100 µM (inactive)
[35]
  GI50: > 100 µM (inactive)
[36]
  GI50: > 100 µM (inactive)
[37]
  GI50: > 100 µM (inactive)
[38]
  GI50: > 100 µM (inactive)
[39]
  GI50: > 100 µM (inactive)
[41]
  GI50: > 100 µM (inactive)
[42]
  GI50: > 100 µM (inactive)
[44]
  GI50: > 100 µM (inactive)
[45]
  GI50: > 100 µM (inactive)
[46]
  GI50: > 100 µM (inactive)
[47]
  GI50: > 100 µM (inactive)
[48]
  GI50: > 100 µM (inactive)
[50]
  GI50: 58.9 µM (inactive)
[52]
  GI50: > 100 µM (inactive)
[58]
  GI50: > 100 µM (inactive)
[54]
  GI50: > 100 µM (inactive)
[59]
  GI50: > 100 µM (inactive)
[55]
  GI50: > 100 µM (inactive)

## [N-]=[N+]=CC(=O)OC(CCl)CCl
[56]
  GI50: > 100 µM (inactive)
[1]
  GI50: > 100 µM (inactive)
[3]
  GI50: > 100 µM (inactive)
[4]
  GI50: 46.3 µM (inactive)
[5]
  GI50: > 100 µM (inactive)
[6]
  GI50: > 100 µM (inactive)
[7]
  GI50: 25.2 µM (inactive)
[8]
  GI50: > 100 µM (inactive)
[9]
  GI50: > 100 µM (inactive)
[10]
  GI50: 76 µM (inactive)
[11]
  GI50: > 100 µM (inactive)
[12]
  GI50: > 100 µM (inactive)
[14]
  GI50: > 100 µM (inactive)
[15]
  GI50: > 100 µM (inactive)
[16]
  GI50: > 100 µM (inactive)
[57]
  GI50: > 100 µM (inactive)
[17]
  GI50: > 100 µM (inactive)
[19]
  GI50: > 100 µM (inactive)
[21]
  GI50: > 100 µM (inactive)
[22]
  GI50: > 100 µM (inactive)
[23]
  GI50: > 100 µM (inactive)
[24]
  GI50: > 100 µM (inactive)
[25]
  GI50: > 100 µM (inactive)
[26]
  GI50: > 10 µM (inactive)
[28]
  GI50: > 100 µM (inactive)
[29]
  GI50: > 100 µM (inactive)
[30]
  GI50: > 100 µM (inactive)
[31]
  GI50: > 100 µM (inactive)
[32]
  GI50: > 100 µM (inactive)
[33]
  GI50: 37.5 µM (inactive)
[35]
  GI50: > 100 µM (inactive)
[36]
  GI50: > 100 µM (inactive)
[37]
  GI50: > 100 µM (inactive)
[38]
  GI50: > 100 µM (inactive)
[39]
  GI50: > 100 µM (inactive)
[41]
  GI50: > 100 µM (inactive)
[42]
  GI50: > 100 µM (inactive)
[43]
  GI50: > 100 µM
[44]
  GI50: > 100 µM (inactive)
[45]
  GI50: > 100 µM (inactive)
[46]
  GI50: > 100 µM (inactive)
[47]
  GI50: > 100 µM (inactive)
[48]
  GI50: > 100 µM (inactive)
[49]
  GI50: > 100 µM (inactive)
[50]
  GI50: > 100 µM (inactive)
[52]
  GI50: > 100 µM (inactive)
[58]
  GI50: > 100 µM (inactive)
[53]
  GI50: > 100 µM (inactive)
[54]
  GI50: > 100 µM (inactive)
[55]
  GI50: > 100 µM (inactive)

## O/N=C/C1C(OCc2ccccc2)C(OCc2ccccc2)C(OCc2ccccc2)CN1Cc1ccccc1 (stereo unspecified)
[56]
  GI50: 3.82 µM (inactive) and 4.53 µM (inactive)
[1]
  GI50: 5.2 µM (inactive)
[2]
  GI50: 16 µM (inactive) and 13.1 µM (inactive)
[4]
  GI50: 11.7 µM (inactive)
[6]
  GI50: 9.55 µM (inactive)
[10]
  GI50: 10.6 µM (inactive) and 6 µM (inactive)
[13]
  GI50: 7.26 µM (inactive)
[14]
  GI50: 29.4 µM (inactive) and 38.8 µM (inactive)
[15]
  GI50: 6.41 µM (inactive)
[16]
  GI50: 3.89 µM (inactive) and 4.97 µM (inactive)
[17]
  GI50: 19.6 µM (inactive)
[18]
  GI50: 5.26 µM (inactive)
[21]
  GI50: 2.77 µM (inactive) and 1.52 µM (inactive)
[22]
  GI50: 8.99 µM (inactive) and 5.94 µM (inactive)
[24]
  GI50: 22.6 µM (inactive)
[25]
  GI50: 35.2 µM (inactive) and 60.4 µM (inactive)
[26]
  GI50: 3.37 µM (inactive) and 3.65 µM (inactive)
[27]
  GI50: 4.44 µM (inactive) and 7.87 µM (inactive)
[28]
  GI50: 5.41 µM (inactive) and 10.2 µM (inactive)
[29]
  GI50: 3.51 µM (inactive)
[30]
  GI50: 13.1 µM (inactive)
[31]
  GI50: 9.16 µM (inactive) and 15.5 µM (inactive)
[32]
  GI50: 6.15 µM (inactive) and 10.7 µM (inactive)
[36]
  GI50: 13.9 µM (inactive) and 18.7 µM (inactive)
[37]
  GI50: 7.48 µM (inactive)
[38]
  GI50: 41.2 µM (inactive)
[39]
  GI50: 22.1 µM (inactive) and 34 µM (inactive)
[41]
  GI50: 14.3 µM (inactive) and 15.2 µM (inactive)
[44]
  GI50: 15.3 µM (inactive)
[49]
  GI50: 16.7 µM (inactive) and > 10 µM (inactive)
[58]
  GI50: 16 µM (inactive) and 12.4 µM (inactive)
[59]
  GI50: 2.74 µM (inactive)
[55]
  GI50: 4.15 µM (inactive)
